Assay results from article PMC5847527, “Identification of a novel 2-oxindole fluorinated derivative as in vivo antitumor agent for prostate cancer acting via AMPK activation” (Scientific Reports, 2018).

Assays:
LNCaP cells = test: Cell viability by MTT assay, LNCaP; type: cell-based, human
Experimental: (§1) Figure 3 Comparison of the effect of 2-oxindole fluorinated derivatives on the proliferation of human prostate cancer cells. (A) Normal (PTN2 and RWPE-1) and cancer (PC3,DU145 and LNCaP) prostate cells were treated with different doses of the compounds for 24 hours and cell viability was monitored by MTT assay. […] (C) PC-3, DU145 and LNCaP cells were treated with 25 µM of compound 8c for different times. Values were normalized with the control and represent the mean ± SD of at least three independent experiments. *p < 0.05 and **p < 0.01 compared to control by the Student’s - test.
(§2) Human prostate cancer epithelial PC-3, DU145 and LNCaP and human prostate normal RWPE-1 cells were purchased from American Type Culture Collection (ATCC CRL-1435 CRL-1740 and CRL 11609 respectively) (Rockville, MD, USA). The human prostate normal PNT2 cell line was purchased to ECACC (European Collection of Cell cultures, Salisbury, SP4 0JG, UK). Cells were routinely grown in RPMI 1640 medium supplemented with 100 IU/ml penicillin G sodium, 100 µg/ml streptomycin sulfate, 0.25 µg/ml amphotericin B (Invitrogen, Paisley, UK) and 10% fetal calf serum. Cells were used at passages between 10–20. For treatment experiments, cells were plated and grown over night, the medium was then replaced with serum-free RPMI 1640 for 24 hours and then incubated with different doses of the compounds for the indicated times.
(§3) Cell viability was determined by 3-(4,5-dimethylthiazol-2-yl)-2,5-diphenyltetrazolium bromide (MTT) (Sigma-Aldrich) method. […] The optical density in each well was evaluated by measurement of absorbance at 490 and 650 nm using a microplate reader (ELX 800 Bio-Tek Intruments, INC). IC50 values were calculated using GraphPad Prism vs 6.0 (GraphPad Software, Inc, La Jolla, CA, USA). Cell viability was also determined by counting viable and dead cells by Trypan blue staining. Trypan blue positive and negative cells were counted using a Countess^TM automated cell counter (Invitrogen, Carlsbad, CA, USA). Results were expressed in relation to total number of cells counted.

RWPE-1 cells = test: Cell viability by MTT assay, RWPE-1 normal prostate cells; type: cell-based, human
Experimental: as §1, §2, §3

DU145 cells = test: Cell viability by MTT assay, DU145; type: cell-based, human
Experimental: as §1, §2
Cell viability was determined by 3-(4,5-dimethylthiazol-2-yl)-2,5-diphenyltetrazolium bromide (MTT) (Sigma-Aldrich) method. In brief, a total of 5000 cells/well were seeded into 12-well plate in a final volume of 1 mL. After treatments, 20 µl MTT solution (5 mg/ml in PBS) was added to the medium and cells were incubated at 37 °C for 4 h. Then, the supernatant was discarded and isopropanol was added to dissolve the formazan crystals. Treatments were carried out in triplicate. The optical density in each well was evaluated by measurement of absorbance at 490 and 650 nm using a microplate reader (ELX 800 Bio-Tek Intruments, INC). IC50 values were calculated using GraphPad Prism vs 6.0 (GraphPad Software, Inc, La Jolla, CA, USA). Cell viability was also determined by counting viable and dead cells by Trypan blue staining. Trypan blue positive and negative cells were counted using a Countess^TM automated cell counter (Invitrogen, Carlsbad, CA, USA). Results were expressed in relation to total number of cells counted.

[1] = test system: PTN2, RWPE-1, PC3, DU145 and LNCaP prostate cells; test: Cell viability by MTT assay, statements for the five cell lines together; type: cell-based, human
Experimental: We then study the effect of the compounds on the proliferative capacity of PC-3, DU145 and LNCaP prostate cells. We also used the prostate cell lines PTN2 and RWPE-1 which are derived from a histologically normal adult and therefore are considered as normal prostate cells, for comparison. All the compounds were tested at concentrations ranging from 1 to 100 μM.
(A) Normal (PTN2 and RWPE-1) and cancer (PC3,DU145 and LNCaP) prostate cells were treated with different doses of the compounds for 24 hours and cell viability was monitored by MTT assay. […] Values were normalized with the control and represent the mean ± SD of at least three independent experiments. *p < 0.05 and **p < 0.01 compared to control by the Student’s - test.
Human prostate cancer epithelial PC-3, DU145 and LNCaP and human prostate normal RWPE-1 cells were purchased from American Type Culture Collection (ATCC CRL-1435 CRL-1740 and CRL 11609 respectively) (Rockville, MD, USA). The human prostate normal PNT2 cell line was purchased to ECACC (European Collection of Cell cultures, Salisbury, SP4 0JG, UK). Cells were routinely grown in RPMI 1640 medium supplemented with 100 IU/ml penicillin G sodium, 100 µg/ml streptomycin sulfate, 0.25 µg/ml amphotericin B (Invitrogen, Paisley, UK) and 10% fetal calf serum. Cells were used at passages between 10–20. […]

AMPK = AMPK and ACC phosphorylation by Western blot in DU145 cells; type: cell-based, human; settings: 25 µM, 1 hour
Experimental: Figure 2 Effect of 2-oxindole fluorinated derivatives on AMPK activity in prostate cancer cells. (A) PC-3, DU145 and LNCaP cells were treated with 25 µM of the selected 2-oxindole fluorinated derivatives for 1 hour. Levels of the phosphorylated AMPK (pAMPK), phosphorylated ACC (pACC) and their total forms were determined by Western blot. Upper panel, a representative Western blot of three different experiments. β-tubulin (β-Tub) serves as a loading control. […] Lower panels, densitometric analyses of bands represented as the mean of the ratio pAMPK/AMPK or pACC/ACC ± SD of three different experiments. *p < 0.05 compared with the controls by one-way ANOVA followed by Fisher’s LSD test; ^#p < 0.05 compared with 2-oxindole fluorinated derivates or with the AMPK activators AMP or A769662 by one-way ANOVA followed by Tukey test.
Similar results were obtained although AMPK stimulation by compound 8c was not so strong (Fig. 2A). […]
Cells were lysed in Lysis buffer (50 mM Tris pH 7.4, 0.8 M NaCl, 5 mM MgCl2, 0.1% Triton X-100) containing Protease Inhibitor and Phosphatase inhibitor Cocktails (Roche, Basel, Switzerland). Protein concentrations were measured by BioRad™ protein assay kit (Richmond, CA, USA). […] Films were analyzed by densitometry. […]

AMPKα1 1–550 fragment = test: Activity on isolated AMPKα1 1–550 fragment; type: biochemical, human; settings: fragment containing the catalytic domain
From the text: We also assayed the effect of compound 8c on a fragment of the α1 isoform (aa 1–550) that contains the catalytic domain.
(B) Activity of compound 8c on isolated AMPKα1 1–550 fragment. […] Data are the mean ± S.D. of four experiments. **p < 0.01 and ***p < 0.001 compared by the Student’s t-test.

PNT2 cells = test: Cell viability by MTT assay, PNT2 normal prostate cells; type: cell-based, human
Experimental: as §1, §2, §3

## O=C1Nc2ccccc2C1(F)Cc1ccc(-c2ccccc2)o1 (stereo not drawn) [Compound 8c, 3-fluoro-3-((5-phenylfuran-2-yl)methyl)indolin-2-one]
LNCaP cells; 50 μM
  inhibitory efficacy on cells viability at 50 μM: 85%
LNCaP cells; Homo sapiens, MTT, 24 hours
  IC50: 30 µM
RWPE-1 cells; Homo sapiens, RWPE-1, MTT, 24 hours
  IC50: > 1 mM
RWPE-1 cells; RWPE-1, 50 μM
  inhibitory efficacy on cells viability at 50 μM: 50%
DU145 cells; DU145, 50 μM
  inhibitory efficacy on cells viability at 50 μM: 88%
DU145 cells; Homo sapiens, DU-145, DU145, MTT, 24 hours
  IC50: 19 µM
[1]; 100 µM
  inhibition of cell viability at 100 µM: almost totally inhibited cell viability
[1]; 1–100 µM, dose-dependent, 24 hours
  inhibition of cell proliferation: effectively inhibited cell proliferation
AMPK
  AMPK phosphorylation (pAMPK/AMPK): stimulate AMPK in DU145 cells
AMPKα1 1–550 fragment
  AMPK activity of α1 isoform fragment (aa 1–550): no change in AMPK activity
PNT2 cells; Homo sapiens, PNT2, MTT, 24 hours
  IC50: 65 µM
PNT2 cells; PNT2, 50 μM
  inhibitory efficacy on cells viability at 50 μM: 56%
